Experimental data as given in article PMC8892843 (The Science of the total environment, 2021).

Tests used:
[1] = biological target: nicotinic receptor (nAChR) found in H. azteca; experiment: competitive [3H]imidacloprid displacement, filtration; assay type: binding, Hyalella azteca; settings: 1 nM [3H]IMI, pH 7.0, 20 °C, crude microsomes 100 μg/mL
[2] = biological target: nicotinic receptor (nAChR) found in C. dilutus; experiment: as above; assay type: binding, Chironomus dilutus; settings: 1 nM [3H]IMI, pH 7.0, 20 °C, crude microsomes 100 μg/mL

O=[N+]([O-])N=C1NCCN1Cc1ccc(Cl)nc1 [imidacloprid]
IC50 [1]: 8.86 nM
IC50 [2]: 8.04 nM
